Patent US5631401A, “Inhibitors of protein farnesyltransferase and squalene synthase” (Abbott Laboratories, priority 1995, dated 1997)

What was measured:
[1] = target: T1, Rat liver microsomal squalene synthase (Rattus norvegicus, UniProt Q02769); experiment: In vitro inhibition of squalene synthase (rat liver microsomes, 3H-farnesyl diphosphate); assay type: biochemical; conditions: for inhibition at 10 µM: 10 μM (footnote *), read-out: % Inhibition at 10 μM (squalene synthase, values marked *); for inhibition at 1 µM: compared to controls with no test compound
T1 construct: Rat liver microsomes, the source of enzyme, were prepared; from tissue; host or cells: rat liver microsomes
T1 sequence (Q02769 1-416): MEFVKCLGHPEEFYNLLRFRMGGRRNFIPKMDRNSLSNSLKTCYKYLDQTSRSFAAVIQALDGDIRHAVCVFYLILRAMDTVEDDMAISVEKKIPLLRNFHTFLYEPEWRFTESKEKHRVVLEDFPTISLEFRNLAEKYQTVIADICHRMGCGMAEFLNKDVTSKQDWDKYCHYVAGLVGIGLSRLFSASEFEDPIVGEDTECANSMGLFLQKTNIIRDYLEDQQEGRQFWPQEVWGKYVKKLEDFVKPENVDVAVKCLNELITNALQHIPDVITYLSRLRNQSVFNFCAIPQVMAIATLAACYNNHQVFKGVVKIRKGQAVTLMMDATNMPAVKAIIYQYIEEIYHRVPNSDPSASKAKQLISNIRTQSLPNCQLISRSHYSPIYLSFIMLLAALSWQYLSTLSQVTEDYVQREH
Method: In vitro inhibition of squalene synthase may be measured by the following procedure.
Rat liver microsomal squalene synthase activity was measured using radioactive farnesyl diphosphate as a substrate and quantitating squalene synthesis by counting the radioactive squalene formed.
Rat liver microsomes, the source of enzyme, were prepared according to the method of Gillies, P. J., et al., Exp. Molec. Pathol. 44: 329-339 (1986), a modification of the procedure of Erickson, S. K., and Cooper, A. D., Metabolism, 29: 991-996 (1980). Approximately 30 μg of microsomal protein was incubated for 10 minutes at 37° C. with 11 μM of ^3 H-farnesyl diphosphate, 49 mCi/mmol, and test compound in the presence of squalene (2 μL), Mg^++, KF, reduced B-nicotinamide adenine dinucleotide phosphate, dithiothreitol, and K2 PO4, pH 7.35, in a total volume of 200 μL. Oxygen was excluded from the closed incubation tube by degassing with nitrogen. The reaction was terminated by the addition of ethanolic KOH and after degassing with N2, the microsomal membranes were solubilized by heating at 60° C. for 30 minutes. The squalene was extracted into hexane, and the squalene was separated from all other radioactive molecules by passage over an activated alumina column. The solution was collected in scintillation vials, evaporated to dryness, liquid scintillation fluid was added, and the radioactivity was determined in a liquid scintillation counter. […]

[2] = target: T2, Rat brain protein farnesyltransferase (Rattus norvegicus, UniProt Q02293+Q04631); experiment: In vitro inhibition of protein farnesyltransferase (biotin-lamin substrate, scintillation proximity assay); assay type: biochemical; conditions: for inhibition at 10 µM: compared to uninhibited control; for inhibition at 1 µM: 1 μM (footnote *), read-out: % Inhibition at 1 μM (protein farnesyltransferase, values marked *)
T2 construct: The enzyme was purified according to Reiss, Y., et al., Cell, 62: 81-88 (1990), utilizing steps one through three; from tissue; host or cells: rat brain
Method: In vitro inhibition of protein farnesyltransferase may be measured by the following procedure. (Procedures for determination of the inhibition of farnesylation of the oncogene protein Ras are described by Goldstein, et al., J. Biol. Chem., 266: 15575-15578 (1991) and by Singh in U.S. Pat. No. 5,245,061 both of which are incorporated herein by reference.)
Rat brain protein farnesyltransferase activity was measured using the biotin-lamin substrate (which is known to undergo farnesylation in a manner analogous to Ras protein) and radioactive farnesyl diphosphate provided by Amersham Life Science in their commercial scintillation proximity assay kit for the determination of farnesyltransferase. The enzyme was purified according to Reiss, Y., et al., Cell, 62: 81-88 (1990), utilizing steps one through three. The specific activity of the enzyme was approximately 10 nmol substrate farnesylated/mg enzyme/hour. […]

`CN(Cc1cccc(Oc2ccccc2)c1)C(=O)[C@H]1[C@H](C(=O)O)[C@H](C(=O)N(C)Cc2cccc(Oc3ccccc3)c2)[C@H]1C(=O)O` [Example 19, (1α,2β,3β,4α)-1,3-Di(N-methyl-N-(3-phenoxybenzyl)aminocarbonyl)cyclobutane-2,4-dicarboxylic acid] gave an inhibition at 10 µM [1] of 52% and an inhibition at 10 µM [2] of 80%.

For `CN(Cc1ccc(Oc2ccc(F)cc2)cc1)C(=O)[C@H]1[C@H](C(=O)O)[C@H](C(=O)N(C)Cc2ccc(Oc3ccc(F)cc3)cc2)[C@H]1C(=O)O` [Example 21, (1α,2β,3β,4α)-1,3-Di(N-methyl-N-(4-(4-fluorophenoxy)benzyl)aminocarbonyl)cyclobutane-2,4-dicarboxylic acid], the inhibition at 10 µM [1] was 33% and the inhibition at 10 µM [2] was 27%.

In the case of `CN(Cc1cccc(Oc2ccc(F)cc2)c1)C(=O)[C@H]1[C@H](C(=O)O)[C@H](C(=O)N(C)Cc2cccc(Oc3ccc(F)cc3)c2)[C@H]1C(=O)O` [Example 22, (1α,2β,3β,4α)-1,3-Di[N-methyl-N-(3-(4-fluorophenoxy)benzyl)aminocarbonyl]cyclobutane-2,4-dicarboxylic acid], the inhibition at 10 µM [1] is reported as 47% and the inhibition at 10 µM [2] is reported as 78%.

Molecule `CC(C)N(Cc1ccc(Oc2ccccc2)cc1)C(=O)[C@H]1[C@H](C(=O)O)[C@H](C(=O)N(Cc2ccc(Oc3ccccc3)cc2)C(C)C)[C@H]1C(=O)O` [Example 24] has an inhibition at 10 µM [1] of 85% and an inhibition at 10 µM [2] of 31%.

`CC(C)CN(Cc1ccc(Oc2ccccc2)cc1)C(=O)[C@H]1[C@H](C(=O)O)[C@H](C(=O)N(Cc2ccc(Oc3ccccc3)cc2)CC(C)C)[C@H]1C(=O)O` [Example 25, (1α,2β,3β,4α)-1,3-Di(N-isobutyl-N-(4-phenoxybenzyl)aminocarbonyl)cyclobutane-2,4-dicarboxylic acid] showed an inhibition at 1 µM [1] of 24% and an inhibition at 10 µM [2] of 59%.

`CCCN(Cc1ccc(Cc2ccccc2)cc1)C(=O)[C@H]1[C@H](C(=O)O)[C@H](C(=O)N(CCC)Cc2ccc(Cc3ccccc3)cc2)[C@H]1C(=O)O` [Example 26, (1α,2β,3β,4α)-1,3-Di(N-propyl-N-(4-(benzyl)benzyl)aminocarbonyl)cyclobutane-2,4-dicarboxylic acid] showed an inhibition at 10 µM [1] of 33% and an inhibition at 10 µM [2] of 69%.

For `CCCCN(Cc1ccc(Oc2ccccc2)cc1)C(=O)[C@H]1[C@H](C(=O)O)[C@H](C(=O)N(CCCC)Cc2ccc(Oc3ccccc3)cc2)[C@H]1C(=O)O` [Example 27, (1α,2β,3β,4α)-1,3-Di(N-butyl-N-(4-phenoxybenzyl)aminocarbonyl)cyclobutane-2,4-dicarboxylic acid], the inhibition at 1 µM [1] was 35% and the inhibition at 10 µM [2] was 69%.

For `C#CCN(Cc1ccc(Oc2ccccc2)cc1)C(=O)[C@H]1[C@H](C(=O)O)[C@H](C(=O)N(CC#C)Cc2ccc(Oc3ccccc3)cc2)[C@H]1C(=O)O` [Example 28, (1α,2β,3β,4α)-1,3-Di(N-propargyl-N-(4-phenoxybenzyl)aminocarbonyl)cyclobutane-2,4-dicarboxylic acid], the inhibition at 10 µM [1] was 49% and the inhibition at 10 µM [2] was 28%.

With `CCCCCN(Cc1ccc(Oc2ccccc2)cc1)C(=O)[C@H]1[C@H](C(=O)O)[C@H](C(=O)N(CCCCC)Cc2ccc(Oc3ccccc3)cc2)[C@H]1C(=O)O` [Example 29, (1α,2β,3β,4α)-1,3-Di(N-pentyl-N-(4-phenoxybenzyl)aminocarbonyl)cyclobutane-2,4-dicarboxylic acid] the inhibition at 10 µM [1] was 50% and the inhibition at 10 µM [2] was 38%.

Work on `C=CCN(Cc1ccc(Oc2ccccc2)cc1)C(=O)[C@H]1[C@H](C(=O)O)[C@H](C(=O)N(CC=C)Cc2ccc(Oc3ccccc3)cc2)[C@H]1C(=O)O` [Example 30, (1α,2β,3β,4α)-1,3-Di(N-allyl-N-(4-phenoxybenzyl)aminocarbonyl)cyclobutane-2,4-dicarboxylic acid] yielded an inhibition at 10 µM [1] of 63% and an inhibition at 10 µM [2] of 37%.

`O=C(O)[C@H]1[C@H](C(=O)N(Cc2ccc(Oc3ccccc3)cc2)C2CC2)[C@H](C(=O)O)[C@H]1C(=O)N(Cc1ccc(Oc2ccccc2)cc1)C1CC1` [Example 31, (1α,2β,3β,4α)-1,3-Di[N-cyclopropyl-N-(4-phenoxybenzyl)aminocarbonyl]cyclobutane-2,4-dicarboxylic acid] gave an inhibition at 1 µM [1] of 23% and an inhibition at 10 µM [2] of 74%.

`CC(C)=CCC/C(C)=C/CCN(C)C(=O)[C@H]1[C@H](C(=O)O)[C@H](C(=O)N(C)CC/C=C(\C)CCC=C(C)C)[C@H]1C(=O)O` [Example 32, (1α,2β,3β,4α)-1,3-Di[N-methyl-N-(4,8-dimethyl-3,7-nonadienyl)aminocarbonyl]cyclobutane-2,4-dicarboxylic acid] was tested, and the inhibition at 10 µM [1] was 40% and the inhibition at 10 µM [2] was 54%.

For `O=C(O)[C@H]1[C@H](C(=O)N(Cc2ccccc2)Cc2ccccc2)[C@H](C(=O)O)[C@H]1C(=O)N(Cc1ccccc1)Cc1ccccc1` [Example 33, (1α,2β,3β,4α)-1,3-Di[N,N-dibenzylaminocarbonyl]cyclobutane-2,4-dicarboxylic acid], the inhibition at 10 µM [1] was 43% and the inhibition at 10 µM [2] was 64%.

`O=C(O)[C@H]1[C@H](C(=O)N(Cc2ccccc2)Cc2ccc(Cl)cc2)[C@H](C(=O)O)[C@H]1C(=O)N(Cc1ccccc1)Cc1ccc(Cl)cc1` [Example 34, (1α,2β,3β,4α)-1,3-Di[N-benzyl-N-(4-chlorobenzyl)aminocarbonyl]cyclobutane-2,4-dicarboxylic acid] was tested, and the inhibition at 10 µM [1] was 29% and the inhibition at 10 µM [2] was 40%.

In the case of `COC(=O)CN(Cc1ccc(Oc2ccccc2)cc1)C(=O)[C@H]1[C@H](C(=O)O)[C@H](C(=O)N(CC(=O)OC)Cc2ccc(Oc3ccccc3)cc2)[C@H]1C(=O)O` [Example 42, (1α,2β,3β,4α)-1,3-Di[N-methoxycarbonylmethyl-N-(4-phenoxybenzyl)aminocarbonyl]cyclobutane-2,4-dicarboxylic acid], the inhibition at 1 µM [1] is reported as 36% and the inhibition at 10 µM [2] is reported as 67%.

`O=C(O)CCN(Cc1ccc(Oc2ccccc2)cc1)C(=O)C1C(C(=O)O)C(C(=O)N(CCC(=O)O)Cc2ccc(Oc3ccccc3)cc2)C1C(=O)O` (stereo not drawn) [Example 44, (1α,2β,3β,4α)-1,3-Di[N-(2-carboxyethyl)-N-(4-phenoxybenzyl)aminocarbonyl]cyclobutane-2,4-dicarboxylic acid] showed an inhibition at 1 µM [1] of 30% and an inhibition at 10 µM [2] of 81%.

For `CCCN(Cc1cccc(Oc2ccccc2)c1)C(=O)C1C(C(=O)O)C(C(=O)N(CCC)Cc2cccc(Oc3ccccc3)c2)C1C(=O)O` (stereo not drawn) [Example 51, (1α,2β,3β,4α)-1,3-Di[N-propyl-N-(3-phenoxybenzyl)aminocarbonyl]cyclobutane-2,4-dicarboxylic acid], the inhibition at 1 µM [1] was 27% and the inhibition at 10 µM [2] was 68%.

`CCCN(Cc1ccc(Oc2ccccc2)s1)C(=O)C1C(C(=O)O)C(C(=O)N(CCC)Cc2ccc(Oc3ccccc3)s2)C1C(=O)O` (stereo not drawn) [Example 53, (1α,2β,3β,4α)-1,3-Di[N-propyl-N-(5-phenoxythien-2-ylmethyl)aminocarbonyl]cyclobutane-2,4-dicarboxylic acid] showed an inhibition at 1 µM [1] of 23% and an inhibition at 10 µM [2] of 69%.

Work on `CCCN(Cc1ccc(Oc2ccco2)cc1)C(=O)C1C(C(=O)O)C(C(=O)N(CCC)Cc2ccc(Oc3ccco3)cc2)C1C(=O)O` (stereo not drawn) [Example 54] yielded an inhibition at 1 µM [1] of 23% and an inhibition at 10 µM [2] of 59%.

`CCCN(Cc1ccc(Oc2cccc(C)c2)cc1)C(=O)C1C(C(=O)O)C(C(=O)N(CCC)Cc2ccc(Oc3cccc(C)c3)cc2)C1C(=O)O` (stereo not drawn) [Example 57, (1α,2β,3β,4α)-1,3-Di{N-propyl-N-[4-(3-methylphenoxy)benzyl]aminocarbonyl}cyclobutane-2,4-dicarboxylic acid] showed an inhibition at 1 µM [1] of 37% and an inhibition at 1 µM [2] of 26%.

Work on `CCCN(Cc1ccc(Oc2ccc3ccccc3c2)cc1)C(=O)C1C(C(=O)O)C(C(=O)N(CCC)Cc2ccc(Oc3ccc4ccccc4c3)cc2)C1C(=O)O` (stereo not drawn) [Example 58, (1α,2β,3β,4α)-1,3-Di{N-propyl-N-[4-(naphth-2-yloxy)benzyl]aminocarbonyl}cyclobutane-2,4-dicarboxylic acid] yielded an inhibition at 1 µM [1] of 50% and an inhibition at 1 µM [2] of 31%.
